Test results: the supplement of paper PMC10307832

Experiments:
Experiment in all cases: relative viability (nuclei count vs DMSO), 5 days (fraction); higher = more cells survive
[1] = system: NCI-H520
Outline: (§1)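 Lung cancer cell lines in 1536-well plates were dosed by pin tool the day after seeding, either with one drug alone or with a fixed anchor-drug dose plus five library-drug doses (not always all listed) in √10 steps. After 5 days, cells were fixed and their nuclei stained in one step (final 0.05% Triton X-100, 1% formaldehyde, 1 ug/ml Hoechst), then counted on 4× images. Relative viability is the nuclei count in treated wells divided by that in vehicle wells. Values are medians of duplicate plates.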

[2] = system: NCI-H1651
Outline: as §1

[3] = system: NCI-H1944
Outline: as §1

[4] = system: 201T
Outline: as §1

[5] = system: PC-3 [JPC-3]
Outline: as §1

[6] = system: BEN
Outline: as §1

[7] = system: A-427
Outline: as §1

[8] = system: NCI-H441
Outline: as §1

[9] = system: LCLC-97TM1
Outline: as §1

[10] = system: NCI-H596
Outline: as §1

[11] = system: HCC-15
Outline: as §1

COc1cc(N2CCC(C(N)=O)CC2)ccc1Nc1nc(N)c(Cl)c(Nc2ccccc2S(=O)(=O)C(C)C)n1 [HG-5-88-01] + Nc1nc2[nH]cc(CCc3ccc(C(=O)N[C@@H](CCC(=O)O)C(=O)O)cc3)c2c(=O)[nH]1 [Pemetrexed] (partner 0.2 µM)
relative viability ([1]; first compound 0.04 µM): 0.604
relative viability ([1]; first compound 0.1265 µM): 0.592
relative viability ([1]; first compound 0.4 µM): 0.454
relative viability ([1]; first compound 1.265 µM): 0.737
relative viability ([1]; first compound 4 µM): 0.61
relative viability ([2]; first compound 0.04 µM): 0.499
relative viability ([2]; first compound 0.1265 µM): 0.586
relative viability ([2]; first compound 0.4 µM): 0.622
relative viability ([2]; first compound 1.265 µM): 0.538
relative viability ([2]; first compound 4 µM): 0.614
relative viability ([3]; first compound 0.04 µM): 0.642
relative viability ([3]; first compound 0.1265 µM): 0.695
relative viability ([3]; first compound 0.4 µM): 0.643
relative viability ([3]; first compound 1.265 µM): 0.615
relative viability ([3]; first compound 4 µM): 0.564
relative viability ([4]; first compound 0.04 µM): 0.301
relative viability ([4]; first compound 0.1265 µM): 0.325
relative viability ([4]; first compound 1.265 µM): 0.332
relative viability ([4]; first compound 4 µM): 0.272
relative viability ([5]; first compound 0.04 µM): 1.16
relative viability ([5]; first compound 0.1265 µM): 1.1
relative viability ([5]; first compound 0.4 µM): 0.935
relative viability ([5]; first compound 1.265 µM): 0.913
relative viability ([5]; first compound 4 µM): 0.348
relative viability ([6]; first compound 0.04 µM): 0.76
relative viability ([6]; first compound 0.1265 µM): 0.648
relative viability ([6]; first compound 0.4 µM): 0.717
relative viability ([6]; first compound 1.265 µM): 0.687
relative viability ([6]; first compound 4 µM): 0.711
relative viability ([7]; first compound 0.04 µM): 0.951
relative viability ([7]; first compound 0.1265 µM): 1.01
relative viability ([7]; first compound 0.4 µM): 1
relative viability ([7]; first compound 1.265 µM): 1.02
relative viability ([7]; first compound 4 µM): 0.9
relative viability ([8]; first compound 0.04 µM): 0.28
relative viability ([8]; first compound 0.1265 µM): 0.279
relative viability ([8]; first compound 0.4 µM): 0.229
relative viability ([8]; first compound 1.265 µM): 0.276
relative viability ([8]; first compound 4 µM): 0.258
relative viability ([9]; first compound 0.04 µM): 0.208
relative viability ([9]; first compound 0.1265 µM): 0.179
relative viability ([9]; first compound 0.4 µM): 0.132
relative viability ([9]; first compound 1.265 µM): 0.155
relative viability ([9]; first compound 4 µM): 0.131
relative viability ([10]; first compound 0.04 µM): 0.499
relative viability ([10]; first compound 0.1265 µM): 0.548
relative viability ([10]; first compound 0.4 µM): 0.478
relative viability ([10]; first compound 1.265 µM): 0.482
relative viability ([10]; first compound 4 µM): 0.441
relative viability ([11]; first compound 0.04 µM): 0.209
relative viability ([11]; first compound 0.1265 µM): 0.221
relative viability ([11]; first compound 0.4 µM): 0.213
relative viability ([11]; first compound 1.265 µM): 0.229
relative viability ([11]; first compound 4 µM): 0.185
